Laboratory results: the supplement of paper PMC10307832

Key:
Test in all cases: relative viability (nuclei count vs DMSO), 5 days (fraction); higher = more cells survive
AZD6482 + Decitabine = compound: Cc1cc([C@@H](C)Nc2ccccc2C(=O)O)c2nc(N3CCOCC3)cc(=O)n2c1 [AZD6482] + Nc1ncn([C@H]2C[C@H](O)[C@@H](CO)O2)c(=O)n1 [Decitabine] (partner 2 µM)
Procedure, shortened: (§1)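 Dosing by pin tool came one day after lung cancer cell lines were seeded in 1536-well plates, using either one drug or a fixed anchor-drug dose plus five library-drug doses (not always all listed) in √10 steps. After 5 days, nuclei were counted on 4× images. Relative viability is treated-well nuclei count divided by vehicle-well nuclei count, and values are medians of duplicate plates.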

[1] = compound: COc1cc2nc(N3CCCN(C)CC3)nc(NC3CCN(Cc4ccccc4)CC3)c2cc1OC + O=C(c1cc(Cc2n[nH]c(=O)c3ccccc23)ccc1F)N1CCN(C(=O)C2CC2)CC1 [Olaparib] (partner 8 µM)
Procedure, shortened: as §1

AZD6482 + Linsitinib = compound: Cc1cc([C@@H](C)Nc2ccccc2C(=O)O)c2nc(N3CCOCC3)cc(=O)n2c1 [AZD6482] + C[C@]1(O)C[C@@H](c2nc(-c3ccc4ccc(-c5ccccc5)nc4c3)c3c(N)nccn32)C1 [Linsitinib] (partner 1 µM)
Procedure, shortened: as §1

[2] = compound: COc1cc2nc(N3CCCN(C)CC3)nc(NC3CCN(Cc4ccccc4)CC3)c2cc1OC + CCNC(=O)c1noc(-c2cc(C(C)C)c(O)cc2O)c1-c1ccc(CN2CCOCC2)cc1 [Luminespib] (partner 0.01 µM)
Procedure, shortened: as §1

## LXF-289
AZD6482 + Decitabine; first compound 0.08 µM
  relative viability: 0.356
AZD6482 + Decitabine; first compound 0.253 µM
  relative viability: 0.422
AZD6482 + Decitabine; first compound 0.8 µM
  relative viability: 0.36
AZD6482 + Decitabine; first compound 2.53 µM
  relative viability: 0.356
AZD6482 + Decitabine; first compound 8 µM
  relative viability: 0.369
[1]; first compound 0.2 µM
  relative viability: 1.03
[1]; first compound 0.6325 µM
  relative viability: 1.07
[1]; first compound 2 µM
  relative viability: 1.12
[1]; first compound 6.325 µM
  relative viability: 1.05
AZD6482 + Linsitinib; first compound 0.08 µM
  relative viability: 0.993
AZD6482 + Linsitinib; first compound 0.253 µM
  relative viability: 1
AZD6482 + Linsitinib; first compound 0.8 µM
  relative viability: 0.971
AZD6482 + Linsitinib; first compound 2.53 µM
  relative viability: 0.806
AZD6482 + Linsitinib; first compound 8 µM
  relative viability: 0.781
[2]; first compound 0.2 µM
  relative viability: 0.592
[2]; first compound 0.6325 µM
  relative viability: 0.651
[2]; first compound 2 µM
  relative viability: 0.729
[2]; first compound 6.325 µM
  relative viability: 0.676

## NCI-H23
AZD6482 + Decitabine; first compound 0.08 µM
  relative viability: 0.309
AZD6482 + Decitabine; first compound 0.253 µM
  relative viability: 0.288
AZD6482 + Decitabine; first compound 0.8 µM
  relative viability: 0.32
AZD6482 + Decitabine; first compound 2.53 µM
  relative viability: 0.312
AZD6482 + Decitabine; first compound 8 µM
  relative viability: 0.304
[1]; first compound 0.2 µM
  relative viability: 0.299
[1]; first compound 0.6325 µM
  relative viability: 0.271
[1]; first compound 2 µM
  relative viability: 0.344
[1]; first compound 6.325 µM
  relative viability: 0.285
AZD6482 + Linsitinib; first compound 0.08 µM
  relative viability: 0.532
AZD6482 + Linsitinib; first compound 0.253 µM
  relative viability: 0.477
AZD6482 + Linsitinib; first compound 0.8 µM
  relative viability: 0.533
AZD6482 + Linsitinib; first compound 2.53 µM
  relative viability: 0.338
AZD6482 + Linsitinib; first compound 8 µM
  relative viability: 0.57
[2]; first compound 0.2 µM
  relative viability: 0.223
[2]; first compound 0.6325 µM
  relative viability: 0.209
[2]; first compound 2 µM
  relative viability: 0.206
[2]; first compound 6.325 µM
  relative viability: 0.187

## NCI-H322M
AZD6482 + Decitabine; first compound 0.08 µM
  relative viability: 0.657
AZD6482 + Decitabine; first compound 0.253 µM
  relative viability: 0.617
AZD6482 + Decitabine; first compound 0.8 µM
  relative viability: 0.674
AZD6482 + Decitabine; first compound 2.53 µM
  relative viability: 0.537
AZD6482 + Decitabine; first compound 8 µM
  relative viability: 0.603
[1]; first compound 0.2 µM
  relative viability: 0.763
[1]; first compound 0.6325 µM
  relative viability: 0.782
[1]; first compound 2 µM
  relative viability: 0.771
[1]; first compound 6.325 µM
  relative viability: 0.688
AZD6482 + Linsitinib; first compound 0.08 µM
  relative viability: 0.718
AZD6482 + Linsitinib; first compound 0.253 µM
  relative viability: 0.601
AZD6482 + Linsitinib; first compound 0.8 µM
  relative viability: 0.707
AZD6482 + Linsitinib; first compound 2.53 µM
  relative viability: 0.355
AZD6482 + Linsitinib; first compound 8 µM
  relative viability: 0.651
[2]; first compound 0.2 µM
  relative viability: 0.766
[2]; first compound 0.6325 µM
  relative viability: 0.943
[2]; first compound 2 µM
  relative viability: 0.799
[2]; first compound 6.325 µM
  relative viability: 0.832

## NCI-H522
AZD6482 + Decitabine; first compound 0.08 µM
  relative viability: 0.627
AZD6482 + Decitabine; first compound 0.253 µM
  relative viability: 0.6
AZD6482 + Decitabine; first compound 0.8 µM
  relative viability: 0.586
AZD6482 + Decitabine; first compound 2.53 µM
  relative viability: 0.585
AZD6482 + Decitabine; first compound 8 µM
  relative viability: 0.755
[1]; first compound 0.2 µM
  relative viability: 0.556
[1]; first compound 0.6325 µM
  relative viability: 0.788
[1]; first compound 2 µM
  relative viability: 0.58
[1]; first compound 6.325 µM
  relative viability: 0.554
[2]; first compound 0.2 µM
  relative viability: 1.03
[2]; first compound 0.6325 µM
  relative viability: 1.23
[2]; first compound 2 µM
  relative viability: 1.32
[2]; first compound 6.325 µM
  relative viability: 1.12

## NCI-H1299
[1]; first compound 0.2 µM
  relative viability: 0.951
[1]; first compound 0.6325 µM
  relative viability: 0.909
[1]; first compound 2 µM
  relative viability: 0.997
[1]; first compound 6.325 µM
  relative viability: 0.928
AZD6482 + Linsitinib; first compound 0.08 µM
  relative viability: 0.907
AZD6482 + Linsitinib; first compound 0.253 µM
  relative viability: 1.03
AZD6482 + Linsitinib; first compound 0.8 µM
  relative viability: 1.11
AZD6482 + Linsitinib; first compound 2.53 µM
  relative viability: 0.803
AZD6482 + Linsitinib; first compound 8 µM
  relative viability: 1.17

## NCI-H1563
AZD6482 + Linsitinib; first compound 0.08 µM
  relative viability: 1.02
AZD6482 + Linsitinib; first compound 0.253 µM
  relative viability: 0.951
AZD6482 + Linsitinib; first compound 0.8 µM
  relative viability: 0.908
AZD6482 + Linsitinib; first compound 2.53 µM
  relative viability: 0.843
AZD6482 + Linsitinib; first compound 8 µM
  relative viability: 0.759
[2]; first compound 0.2 µM
  relative viability: 0.544
[2]; first compound 0.6325 µM
  relative viability: 0.515
[2]; first compound 2 µM
  relative viability: 0.506
[2]; first compound 6.325 µM
  relative viability: 0.507

## NCI-H1623
[2]; first compound 0.2 µM
  relative viability: 0.493
[2]; first compound 0.6325 µM
  relative viability: 0.586
[2]; first compound 2 µM
  relative viability: 0.502
[2]; first compound 6.325 µM
  relative viability: 0.513

## NCI-H1648
AZD6482 + Decitabine; first compound 0.08 µM
  relative viability: 0.502
AZD6482 + Decitabine; first compound 0.253 µM
  relative viability: 0.453
AZD6482 + Decitabine; first compound 0.8 µM
  relative viability: 0.472
AZD6482 + Decitabine; first compound 8 µM
  relative viability: 0.48
[1]; first compound 0.6325 µM
  relative viability: 0.713
[1]; first compound 6.325 µM
  relative viability: 1.01

## NCI-H1650
AZD6482 + Decitabine; first compound 0.08 µM
  relative viability: 0.381
AZD6482 + Decitabine; first compound 0.253 µM
  relative viability: 0.571
AZD6482 + Decitabine; first compound 0.8 µM
  relative viability: 0.544
AZD6482 + Decitabine; first compound 2.53 µM
  relative viability: 0.584
AZD6482 + Decitabine; first compound 8 µM
  relative viability: 0.474
[1]; first compound 0.2 µM
  relative viability: 0.773
[1]; first compound 0.6325 µM
  relative viability: 0.787
[1]; first compound 2 µM
  relative viability: 0.886
[1]; first compound 6.325 µM
  relative viability: 0.648
[2]; first compound 0.2 µM
  relative viability: 0.181
[2]; first compound 0.6325 µM
  relative viability: 0.19
[2]; first compound 2 µM
  relative viability: 0.197
[2]; first compound 6.325 µM
  relative viability: 0.174

## NCI-H1703
[1]; first compound 0.2 µM
  relative viability: 0.395
[1]; first compound 0.6325 µM
  relative viability: 0.334
[1]; first compound 2 µM
  relative viability: 0.365
[1]; first compound 6.325 µM
  relative viability: 0.394
AZD6482 + Linsitinib; first compound 0.08 µM
  relative viability: 1.01
AZD6482 + Linsitinib; first compound 0.253 µM
  relative viability: 0.398
AZD6482 + Linsitinib; first compound 0.8 µM
  relative viability: 0.478
AZD6482 + Linsitinib; first compound 2.53 µM
  relative viability: 0.249
AZD6482 + Linsitinib; first compound 8 µM
  relative viability: 0.47

## NCI-H2170
AZD6482 + Decitabine; first compound 0.08 µM
  relative viability: 0.427
AZD6482 + Decitabine; first compound 0.253 µM
  relative viability: 0.443
AZD6482 + Decitabine; first compound 0.8 µM
  relative viability: 0.432
AZD6482 + Decitabine; first compound 2.53 µM
  relative viability: 0.423
AZD6482 + Decitabine; first compound 8 µM
  relative viability: 0.442
[1]; first compound 0.2 µM
  relative viability: 0.623
[1]; first compound 0.6325 µM
  relative viability: 0.576
[1]; first compound 2 µM
  relative viability: 0.675
[1]; first compound 6.325 µM
  relative viability: 0.566
[2]; first compound 0.2 µM
  relative viability: 0.887
[2]; first compound 0.6325 µM
  relative viability: 0.648
[2]; first compound 2 µM
  relative viability: 0.88
[2]; first compound 6.325 µM
  relative viability: 0.69

## NCI-H2228
[1]; first compound 0.2 µM
  relative viability: 0.637
[1]; first compound 0.6325 µM
  relative viability: 0.62
[1]; first compound 2 µM
  relative viability: 0.46
[1]; first compound 6.325 µM
  relative viability: 0.35
AZD6482 + Linsitinib; first compound 0.08 µM
  relative viability: 0.48
AZD6482 + Linsitinib; first compound 0.253 µM
  relative viability: 0.38
AZD6482 + Linsitinib; first compound 0.8 µM
  relative viability: 0.38
AZD6482 + Linsitinib; first compound 2.53 µM
  relative viability: 0.469
AZD6482 + Linsitinib; first compound 8 µM
  relative viability: 0.428
[2]; first compound 0.2 µM
  relative viability: 0.162
[2]; first compound 0.6325 µM
  relative viability: 0.12
[2]; first compound 2 µM
  relative viability: 0.138
[2]; first compound 6.325 µM
  relative viability: 0.101

## NCI-H2342
AZD6482 + Decitabine; first compound 0.08 µM
  relative viability: 0.636
AZD6482 + Decitabine; first compound 0.253 µM
  relative viability: 0.643
AZD6482 + Decitabine; first compound 0.8 µM
  relative viability: 0.736
AZD6482 + Decitabine; first compound 2.53 µM
  relative viability: 0.568
AZD6482 + Decitabine; first compound 8 µM
  relative viability: 0.587
[1]; first compound 0.2 µM
  relative viability: 0.482
[1]; first compound 0.6325 µM
  relative viability: 0.349
[1]; first compound 2 µM
  relative viability: 0.46
[1]; first compound 6.325 µM
  relative viability: 0.459
[2]; first compound 0.2 µM
  relative viability: 0.689
[2]; first compound 0.6325 µM
  relative viability: 0.673
[2]; first compound 2 µM
  relative viability: 0.677
[2]; first compound 6.325 µM
  relative viability: 0.75

## SW 900
AZD6482 + Decitabine; first compound 0.08 µM
  relative viability: 0.412
AZD6482 + Decitabine; first compound 0.253 µM
  relative viability: 0.419
AZD6482 + Decitabine; first compound 0.8 µM
  relative viability: 0.45
AZD6482 + Decitabine; first compound 2.53 µM
  relative viability: 0.418
AZD6482 + Decitabine; first compound 8 µM
  relative viability: 0.434
[1]; first compound 0.2 µM
  relative viability: 0.675
[1]; first compound 0.6325 µM
  relative viability: 0.926
[1]; first compound 2 µM
  relative viability: 0.705
[1]; first compound 6.325 µM
  relative viability: 0.677
[2]; first compound 0.2 µM
  relative viability: 0.143
[2]; first compound 0.6325 µM
  relative viability: 0.188
[2]; first compound 2 µM
  relative viability: 0.18
[2]; first compound 6.325 µM
  relative viability: 0.156
